Literature values in article PMC3401522 (ACS Chemical Biology, 2011).

System: JIP-JNK interaction sites

IC50: 500 nM
Structure (SMILES): O=c1[nH]nc(Sc2ncc([N+](=O)[O-])s2)n1-c1ccc2c(c1)OCCO2 [BI-78D3]
